Laboratory results published in US11292770B2, “Pyridazinone herbicides” (FMC Corporation, priority 2017, dated 2022).

These compounds were tested on ducksalad (Heteranthera limosa) (assay: Test B flooded paddy test, ducksalad). Conditions: Flood, 250 g ai/ha; scale of 0 to 100.
Format: in vivo
Experimental: (§1) Plant species in the flooded paddy test selected from rice (Oryza sativa), sedge, umbrella (small-flower umbrella sedge, Cyperus difformis), ducksalad (Heteranthera limosa), and barnyardgrass (Echinochloa crus-galli) were grown to the 2-leaf stage for testing. At the time of treatment, test pots were flooded to 3 cm above the soil surface, treated by application of test compounds directly to the paddy water, and then maintained at that water depth for the duration of the test. Treated plants and controls were maintained in a greenhouse for 13 to 15 d, after which time all species were compared to controls and visually evaluated. Plant response ratings, summarized in Table B, are based on a scale of 0 to 100 where 0 is no effect and 100 is complete control. A dash (—) response means no test result.

**Q.** For C1COCCN1.Cn1nc(Cl)c(O)c(-c2c3ccccc3cc3ccccc23)c1=O [Compound 7], which “Plant response rating, Ducksalad” value is on record?
**A.** 100

The compounds below were run on Foxtail, Giant (assay: Test A preemergence, foxtail, giant). Conditions: 31 g ai/ha, 0 to 100 scale.
Format: in vivo

**Q.** C1COCCN1.Cn1nc(Cl)c(O)c(-c2c3ccccc3cc3ccccc23)c1=O [Compound 7] was tested. Which “Plant response rating, Foxtail, Giant” value did it give?
**A.** 0

Same assay, conditions: 125 g ai/ha, 0 to 100 scale

**Q.** Which “Plant response rating, Foxtail, Giant” value does the source give for C1COCCN1.Cn1nc(Cl)c(O)c(-c2c3ccccc3cc3ccccc23)c1=O [Compound 7] here?
**A.** 0

What follows are compounds tested on galium (catchweed bedstraw, Galium aparine) (assay: Test A postemergence, galium). Conditions: 31 g ai/ha, 0 to 100 scale.
Format: in vivo
Description: (§2) Seeds of plant species selected from barnyardgrass (Echinochloa crus-galli), kochia (Kochia scoparia), ragweed (common ragweed, Ambrosia elation), ryegrass, Italian (Italian ryegrass, Lolium multiflorum), foxtail, green (green foxtail, Setaria viridis), and pigweed (Amaranthus retroflexus) were planted into a blend of loam soil and sand and treated preemergence with a directed soil spray using test chemicals formulated in a non-phytotoxic solvent mixture which included a surfactant. At the same time, plants selected from these weed species and also wheat (Triticum aestivum), corn (Zea mays), blackgrass (Alopecurus myosuroides), and galium (catchweed bedstraw, Galium aparine) were planted in pots containing the same blend of loam soil and sand and treated with postemergence applications of test chemicals formulated in the same manner Plants ranged in height from 2 to 10 cm and were in the one- to two-leaf stage for the postemergence treatment. Treated plants and untreated controls were maintained in a greenhouse for approximately 10 d, after which time all treated plants were compared to untreated controls and visually evaluated for injury. Plant response ratings, summarized in Table A, are based on a 0 to 100 scale where 0 is no effect and 100 is complete control. A dash (—) response means no test result.

**Q.** Which “Plant response rating, Galium” value does the source give for C1COCCN1.Cn1nc(Cl)c(O)c(-c2c3ccccc3cc3ccccc23)c1=O [Compound 7] here?
**A.** 70

Same assay, conditions: 125 g ai/ha, 0 to 100 scale

**Q.** Which “Plant response rating, Galium” value does the source give for C1COCCN1.Cn1nc(Cl)c(O)c(-c2c3ccccc3cc3ccccc23)c1=O [Compound 7] here?
**A.** 100

What follows are compounds tested on ryegrass, Italian (Italian ryegrass, Lolium multiflorum) (assay: Test A postemergence, ryegrass, Italian). Conditions: 31 g ai/ha, 0 to 100 scale.
Format: in vivo
Description: as §2

**Q.** For C1COCCN1.Cn1nc(Cl)c(O)c(-c2c3ccccc3cc3ccccc23)c1=O [Compound 7], which “Plant response rating, Ryegrass, Italian” value is on record?
**A.** 10

Same assay, conditions: 125 g ai/ha, 0 to 100 scale

**Q.** C1COCCN1.Cn1nc(Cl)c(O)c(-c2c3ccccc3cc3ccccc23)c1=O [Compound 7] was tested. Which “Plant response rating, Ryegrass, Italian” value did it give?
**A.** 60

What follows are compounds tested on barnyardgrass (Echinochloa crus-galli) (assay: Test B flooded paddy test, barnyardgrass). Conditions: Flood, 250 g ai/ha; scale of 0 to 100, 0 no effect, 100 complete control.
Format: in vivo
Experimental: as §1

**Q.** How did the “Plant response rating, Barnyardgrass” value turn out when C1COCCN1.Cn1nc(Cl)c(O)c(-c2c3ccccc3cc3ccccc23)c1=O [Compound 7] was run?
**A.** 0

These compounds were tested on blackgrass (Alopecurus myosuroides) (assay: Test A postemergence, blackgrass). Conditions: 31 g ai/ha, 0 to 100 scale.
Format: in vivo
Description: as §2

**Q.** C1COCCN1.Cn1nc(Cl)c(O)c(-c2c3ccccc3cc3ccccc23)c1=O [Compound 7] was tested. Which “Plant response rating, Blackgrass” value did it give?
**A.** 0

Same assay, conditions: 125 g ai/ha, 0 to 100 scale

**Q.** C1COCCN1.Cn1nc(Cl)c(O)c(-c2c3ccccc3cc3ccccc23)c1=O [Compound 7] was tested. Which “Plant response rating, Blackgrass” value did it give?
**A.** 10

What follows are compounds tested on pigweed (Amaranthus retroflexus) (assay: Test A preemergence, pigweed). Conditions: 31 g ai/ha, 0 to 100 scale.
Format: in vivo
Description: as §2

**Q.** With C1COCCN1.Cn1nc(Cl)c(O)c(-c2c3ccccc3cc3ccccc23)c1=O [Compound 7] as the compound, how does the “Plant response rating, Pigweed” value read?
**A.** 60

Same assay, conditions: 125 g ai/ha, 0 to 100 scale

**Q.** With C1COCCN1.Cn1nc(Cl)c(O)c(-c2c3ccccc3cc3ccccc23)c1=O [Compound 7] as the compound, how does the “Plant response rating, Pigweed” value read?
**A.** 100

The compounds below were run on corn (Zea mays) (assay: Test A postemergence, corn). Conditions: 31 g ai/ha, 0 to 100 scale.
Format: in vivo
Description: as §2

**Q.** With C1COCCN1.Cn1nc(Cl)c(O)c(-c2c3ccccc3cc3ccccc23)c1=O [Compound 7] as the compound, how does the “Plant response rating, Corn” value read?
**A.** 10

Same assay, conditions: 125 g ai/ha, 0 to 100 scale

**Q.** C1COCCN1.Cn1nc(Cl)c(O)c(-c2c3ccccc3cc3ccccc23)c1=O [Compound 7] was tested. Which “Plant response rating, Corn” value did it give?
**A.** 10

These compounds were tested on ragweed (common ragweed, Ambrosia elation) (assay: Test A postemergence, ragweed). Conditions: 31 g ai/ha, 0 to 100 scale.
Format: in vivo
Description: as §2

**Q.** With C1COCCN1.Cn1nc(Cl)c(O)c(-c2c3ccccc3cc3ccccc23)c1=O [Compound 7] as the compound, how does the “Plant response rating, Ragweed” value read?
**A.** 90

Same assay, conditions: 125 g ai/ha, 0 to 100 scale

**Q.** Which “Plant response rating, Ragweed” value does the source give for C1COCCN1.Cn1nc(Cl)c(O)c(-c2c3ccccc3cc3ccccc23)c1=O [Compound 7] here?
**A.** 100

What follows are compounds tested on sedge, umbrella (small-flower umbrella sedge, Cyperus difformis) (assay: Test B flooded paddy test, sedge, umbrella). Conditions: Flood, 250 g ai/ha; scale of 0 to 100.
Format: in vivo
Experimental: as §1

**Q.** For C1COCCN1.Cn1nc(Cl)c(O)c(-c2c3ccccc3cc3ccccc23)c1=O [Compound 7], which “Plant response rating, Sedge, Umbrella” value is on record?
**A.** 100

These compounds were tested on kochia (Kochia scoparia) (assay: Test A preemergence, kochia). Conditions: 31 g ai/ha, 0 to 100 scale.
Format: in vivo
Description: as §2

**Q.** C1COCCN1.Cn1nc(Cl)c(O)c(-c2c3ccccc3cc3ccccc23)c1=O [Compound 7] was tested. Which “Plant response rating, Kochia” value did it give?
**A.** 0

Same assay, conditions: 125 g ai/ha, 0 to 100 scale

**Q.** With C1COCCN1.Cn1nc(Cl)c(O)c(-c2c3ccccc3cc3ccccc23)c1=O [Compound 7] as the compound, how does the “Plant response rating, Kochia” value read?
**A.** 0

These compounds were tested on kochia (Kochia scoparia) (assay: Test A postemergence, kochia). Conditions: 31 g ai/ha, 0 to 100 scale.
Format: in vivo
Description: as §2

**Q.** For C1COCCN1.Cn1nc(Cl)c(O)c(-c2c3ccccc3cc3ccccc23)c1=O [Compound 7], which “Plant response rating, Kochia” value is on record?
**A.** 0

Same assay, conditions: 125 g ai/ha, 0 to 100 scale

**Q.** How did the “Plant response rating, Kochia” value turn out when C1COCCN1.Cn1nc(Cl)c(O)c(-c2c3ccccc3cc3ccccc23)c1=O [Compound 7] was run?
**A.** 10

What follows are compounds tested on wheat (Triticum aestivum) (assay: Test A postemergence, wheat). Conditions: 31 g ai/ha, 0 to 100 scale.
Format: in vivo
Description: as §2

**Q.** C1COCCN1.Cn1nc(Cl)c(O)c(-c2c3ccccc3cc3ccccc23)c1=O [Compound 7] was tested. Which “Plant response rating, Wheat” value did it give?
**A.** 0

Same assay, conditions: 125 g ai/ha, 0 to 100 scale

**Q.** With C1COCCN1.Cn1nc(Cl)c(O)c(-c2c3ccccc3cc3ccccc23)c1=O [Compound 7] as the compound, how does the “Plant response rating, Wheat” value read?
**A.** 0

Each compound was assayed on ryegrass, Italian (Italian ryegrass, Lolium multiflorum) (assay: Test A preemergence, ryegrass, Italian). Conditions: 31 g ai/ha, 0 to 100 scale.
Format: in vivo
Description: as §2

**Q.** How did the “Plant response rating, Ryegrass, Italian” value turn out when C1COCCN1.Cn1nc(Cl)c(O)c(-c2c3ccccc3cc3ccccc23)c1=O [Compound 7] was run?
**A.** 0

Same assay, conditions: 125 g ai/ha, 0 to 100 scale

**Q.** How did the “Plant response rating, Ryegrass, Italian” value turn out when C1COCCN1.Cn1nc(Cl)c(O)c(-c2c3ccccc3cc3ccccc23)c1=O [Compound 7] was run?
**A.** 0

The compounds below were run on rice (Oryza sativa) (assay: Test B flooded paddy test, rice). Conditions: Flood, 250 g ai/ha; scale of 0 to 100.
Format: in vivo
Experimental: as §1

**Q.** How did the “Plant response rating, Rice” value turn out when C1COCCN1.Cn1nc(Cl)c(O)c(-c2c3ccccc3cc3ccccc23)c1=O [Compound 7] was run?
**A.** 0

The compounds below were run on Foxtail, Giant (assay: Test A postemergence, foxtail, giant). Conditions: 31 g ai/ha, 0 to 100 scale.
Format: in vivo

**Q.** C1COCCN1.Cn1nc(Cl)c(O)c(-c2c3ccccc3cc3ccccc23)c1=O [Compound 7] was tested. Which “Plant response rating, Foxtail, Giant” value did it give?
**A.** 0

Same assay, conditions: 125 g ai/ha, 0 to 100 scale

**Q.** C1COCCN1.Cn1nc(Cl)c(O)c(-c2c3ccccc3cc3ccccc23)c1=O [Compound 7] was tested. Which “Plant response rating, Foxtail, Giant” value did it give?
**A.** 10

The compounds below were run on barnyardgrass (Echinochloa crus-galli) (assay: Test A postemergence, barnyardgrass). Conditions: 31 g ai/ha, 0 to 100 scale.
Format: in vivo
Description: as §2

**Q.** With C1COCCN1.Cn1nc(Cl)c(O)c(-c2c3ccccc3cc3ccccc23)c1=O [Compound 7] as the compound, how does the “Plant response rating, Barnyardgrass” value read?
**A.** 0

Same assay, conditions: 125 g ai/ha, 0 to 100 scale, 0 no effect, 100 complete control

**Q.** With C1COCCN1.Cn1nc(Cl)c(O)c(-c2c3ccccc3cc3ccccc23)c1=O [Compound 7] as the compound, how does the “Plant response rating, Barnyardgrass” value read?
**A.** 0

What follows are compounds tested on ragweed (common ragweed, Ambrosia elation) (assay: Test A preemergence, ragweed). Conditions: 31 g ai/ha, 0 to 100 scale.
Format: in vivo
Description: as §2

**Q.** With C1COCCN1.Cn1nc(Cl)c(O)c(-c2c3ccccc3cc3ccccc23)c1=O [Compound 7] as the compound, how does the “Plant response rating, Ragweed” value read?
**A.** 0

Same assay, conditions: 125 g ai/ha, 0 to 100 scale

**Q.** Which “Plant response rating, Ragweed” value does the source give for C1COCCN1.Cn1nc(Cl)c(O)c(-c2c3ccccc3cc3ccccc23)c1=O [Compound 7] here?
**A.** 40

What follows are compounds tested on barnyardgrass (Echinochloa crus-galli) (assay: Test A preemergence, barnyardgrass). Conditions: 31 g ai/ha, 0 to 100 scale.
Format: in vivo
Description: as §2

**Q.** C1COCCN1.Cn1nc(Cl)c(O)c(-c2c3ccccc3cc3ccccc23)c1=O [Compound 7] was tested. Which “Plant response rating, Barnyardgrass” value did it give?
**A.** 0

Same assay, conditions: 125 g ai/ha, 0 to 100 scale

**Q.** For C1COCCN1.Cn1nc(Cl)c(O)c(-c2c3ccccc3cc3ccccc23)c1=O [Compound 7], which “Plant response rating, Barnyardgrass” value is on record?
**A.** 0

What follows are compounds tested on pigweed (Amaranthus retroflexus) (assay: Test A postemergence, pigweed). Conditions: 31 g ai/ha, 0 to 100 scale.
Format: in vivo
Description: as §2

**Q.** For C1COCCN1.Cn1nc(Cl)c(O)c(-c2c3ccccc3cc3ccccc23)c1=O [Compound 7], which “Plant response rating, Pigweed” value is on record?
**A.** 100

Same assay, conditions: 125 g ai/ha, 0 to 100 scale

**Q.** Which “Plant response rating, Pigweed” value does the source give for C1COCCN1.Cn1nc(Cl)c(O)c(-c2c3ccccc3cc3ccccc23)c1=O [Compound 7] here?
**A.** 100
